What all share (format): cell-based
In experiment [1] the test system is HTT mRNA. The experiment is described as follows: Splicing RT-qPCR assay (THP), Table 2A. The settings on record: Table 2A (THP); for AC50: AJ mRNA increase, read-out: HTT AJ (increase in alternative junction mRNA, AC50); for IC50: CJ mRNA decrease, read-out: HTT CJ (decrease in canonical junction mRNA, IC50).
Experiment [2] concerns MYB mRNA. The experiment can be described thus: Splicing RT-qPCR assay (THP), Table 2A. The settings on record: Table 2A (THP); for AC50: AJ mRNA increase, read-out: MYB AJ (increase in alternative junction mRNA, AC50); for IC50: CJ mRNA decrease, read-out: MYB CJ (decrease in canonical junction mRNA, IC50). (In general: Quantitative PCR measures a nucleic acid by following its amplification.)

Experiment [3] deals with HTT mRNA. The experiment can be described thus: Gene panel canonical junction qPCR assay, decrease in CJ mRNA, Table 3. The settings on record: decrease in canonical junction (CJ) mRNA, gene panel qPCR, Table 3. A digest of the protocol: (§1)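 IC50 is the concentration giving 50% response in decrease of the canonical junction transcript, fitted with a 4-parameter logistic equation. Transcripts were quantified by RT-qPCR in A673 or K562 cells after 24 h exposure to compounds dosed up to 10 uM in 3-fold steps.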

In experiment [4] the test system is MYB mRNA. Described as above. The settings on record: decrease in canonical junction (CJ) mRNA, gene panel qPCR, Table 3. The method in brief: as §1
For the next experiment, the system named is SMN2 mRNA. Described as above. Particulars: decrease in canonical junction (CJ) mRNA, gene panel qPCR, Table 3. A digest of the protocol: as §1
In experiment [5] the test system is SH-SY5Y (human neuroblastoma) cells. The experiment is described as follows: Cell viability, Cell Titer Glo 2.0 assay. The settings on record: read-out: Viability SHSY5Y.3 GI50. The method in brief: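 Steps: serial DMSO dilution of compound, 1:100 dilution into medium, addition to cells (0.1% DMSO final). Incubate 72 h at 37 °C, 5% CO2. Assay with CellTiter-Glo 2.0 reagent.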

The term AC50 denotes the concentration giving half of the maximal activity seen. In general, IC50 refers to the concentration at which inhibition is half-maximal. In general, GI50 refers to the concentration giving 50% growth inhibition.

For the compound `Cc1cn2cc(NC(=O)c3ccc(N4CC(CNC5CC5)C4)c4cn(C)nc34)cc(F)c2n1` [Compound 298, 4-[3-[(cyclopropylamino)-methyl]azetidin-1-yl]-N-(8-fluoro-2-methylimidazo[1,2-a]pyridin-6-yl)-2-methylindazole-7-carboxamide], the values for the AC50 with HTT mRNA [1] and in the experiment on MYB mRNA [2] were 1 to 10 µM and 0.1 to 1 µM, respectively. Moreover, the IC50 was 1 to 10 µM with HTT mRNA [1]; 0.1 to 1 µM in the experiment with MYB mRNA [2]; 1 to 10 µM with HTT mRNA [3]; 0.1 to 1 µM in the experiment with MYB mRNA [4]; under 0.1 µM in the experiment with SMN2 mRNA. Further, the GI50 in experiment [5] fell in the range of 1 to 10 µM.

Turning to `CCNC1CCN(c2cc(F)c(C(=O)Nc3cc(F)c4nc(C)n(C)c4c3)c3nn(C)cc23)CC1` [Compound 299, 4-[4-(ethylamino)-1-piperidyl]-6-fluoro-N-(7-fluoro-2,3-dimethyl-benzimidazol-5-yl)-2-methyl-indazole-7-carboxamide], the AC50 with HTT mRNA [1] and with MYB mRNA [2] was over 10 µM each time. For the same compound, the IC50 with HTT mRNA [1], with MYB mRNA [2], in the experiment on HTT mRNA [3], in the experiment on MYB mRNA [4] and with SMN2 mRNA was over 10 µM each time. In addition, in experiment [5], the GI50 was over 10 µM.

Turning to `CCNC1CCN(c2cc(F)c(C(=O)Nc3cc(F)c4cn(C)nc4c3)c3nn(C)cc23)CC1` [Compound 300, 4-[4-(ethylamino)-1-piperidyl]-6-fluoro-N-(4-fluoro-2-methylindazol-6-yl)-2-methyl-indazole-7-carboxamide], the concentration at half-maximal activity (AC50) in the experiment on HTT mRNA [1] and in the experiment with MYB mRNA [2] was over 10 µM in each case. Further, the IC50 is over 10 µM with HTT mRNA [1]; over 10 µM in the experiment on MYB mRNA [2]; over 10 µM with HTT mRNA [3]; over 10 µM in the experiment with MYB mRNA [4]; 1 to 10 µM with SMN2 mRNA. Moreover, in experiment [5], the GI50 was 1 to 10 µM.

For `CCNC1CCN(c2cc(F)c(C(=O)Nc3nc4c(C)nc(C)cn4n3)c3nn(C)cc23)CC1` [Compound 301, N-(6,8-dimethyl-[1,2,4]triazolo[1,5-a]pyrazin-2-yl)-4-(4-(ethylamino)piperidin-1-yl)-6-fluoro-2-methyl-2H-indazole-7-carboxamide 2,2,2-trifluoroacetate], the AC50 in the experiment on HTT mRNA [1] and in the experiment on MYB mRNA [2] was over 10 µM in each case. The IC50 is 1 to 10 µM in the experiment on HTT mRNA [1]; over 10 µM in the experiment with MYB mRNA [2]; 1 to 10 µM in the experiment with HTT mRNA [3]; over 10 µM in the experiment on MYB mRNA [4]; 1 to 10 µM in the experiment on SMN2 mRNA. Besides, in experiment [5], the GI50 was over 10 µM.

In the case of `CCNC1CCN(c2cc(F)c(C(=O)Nc3cc4c(C)nc(C)cn4n3)c3nn(C)cc23)CC1` [Compound 302, N-(4,6-dimethylpyrazolo [1,5-a]pyrazin-2-yl)-4-[4-(ethylamino)-1-piperidyl]-6-fluoro-2-methyl-indazole-7-carboxamide], the AC50 in the experiment with HTT mRNA [1] and in the experiment on MYB mRNA [2] was over 10 µM throughout. Moreover, the IC50 in the experiment on HTT mRNA [1], in the experiment on MYB mRNA [2], in the experiment with HTT mRNA [3], in the experiment on MYB mRNA [4] and with SMN2 mRNA was over 10 µM in each case. For the same compound, the GI50 in experiment [5] was over 10 µM.

As for `CCNC1CCN(c2ccc(C(=O)Nc3cc(F)c4cnccc4c3)c3nn(C)cc23)CC1` [Compound 303, 4-[4-(ethylamino)-1-piperidyl]-N-(8-fluoro-6-isoquinolyl)-2-methylindazole-7-carboxamide], the AC50 in the experiment with HTT mRNA [1] and in the experiment on MYB mRNA [2] was over 10 µM throughout. Further, the IC50 with HTT mRNA [1], in the experiment with MYB mRNA [2], with HTT mRNA [3], in the experiment on MYB mRNA [4] and in the experiment on SMN2 mRNA was over 10 µM each time. Further, the GI50 in experiment [5] fell in the range of 1 to 10 µM.

Take `CCNC1CCN(c2cc(F)c(C(=O)Nc3cn4cc(C5CC5)nc4c(F)c3OC)c3nn(C)cc23)CC1` [Compound 304, N-(2-cyclopropyl-8-fluoro-7-methoxyimidazo [1,2-a]pyridin-6-yl)-4-[4-(ethylamino)-piperidin-1-yl]-6-fluoro-2-methylindazole-7-carboxamide]: the AC50 in the experiment on HTT mRNA [1] and in the experiment on MYB mRNA [2] was over 10 µM each time. Besides, the half-inhibitory concentration (IC50) is over 10 µM in the experiment on HTT mRNA [1]; over 10 µM in the experiment on MYB mRNA [2]; over 10 µM in the experiment with HTT mRNA [3]; over 10 µM in the experiment with MYB mRNA [4]; 0.1 to 1 µM in the experiment on SMN2 mRNA. Moreover, the GI50 in experiment [5] fell in the range of 1 to 10 µM.

`CCNC1CCN(c2cc(F)c(C(=O)Nc3cn4c(C)c(C)nc4c(F)c3OC)c3nn(C)cc23)CC1` [Compound 305, 4-[4-(ethylamino)piperidin-1-yl]-6-fluoro-N-(8-fluoro-7-methoxy-2,3-dimethyl-imidazo[1,2-a]pyridin-6-yl)-2-methylindazole-7-carboxamide]: the AC50 in the experiment on HTT mRNA [1] and with MYB mRNA [2] was over 10 µM in each case. Besides, the IC50 in the experiment with HTT mRNA [1], in the experiment on MYB mRNA [2], in the experiment with HTT mRNA [3], in the experiment on MYB mRNA [4] and in the experiment with SMN2 mRNA was over 10 µM throughout. The concentration for 50% growth inhibition (GI50) in experiment [5] was over 10 µM.

On to `CCNC1CCN(c2cc(F)c(C(=O)Nc3cn4cc(C)nc(C)c4n3)c3nn(C)cc23)CC1` [Compound 306, N-(6,8-dimethylimidazo[1,2-a]pyrazin-2-yl)-4-(4-(ethylamino)-piperidin-1-y1)-6-fluoro-2-methyl-2H-indazole-7-carboxamide 2,2,2-trifluoroacetate], for which the AC50 in the experiment on HTT mRNA [1] was 1 to 10 µM; in the experiment with MYB mRNA [2] it was under 0.1 µM. The IC50 in the experiment with HTT mRNA [1] is over 10 µM; in the experiment on MYB mRNA [2], under 0.1 µM; in the experiment on HTT mRNA [3], over 10 µM; in the experiment on MYB mRNA [4], under 0.1 µM; with SMN2 mRNA, under 0.1 µM. Also, the GI50 in experiment [5] lay in the range of 1 to 10 µM.

Take `CCNC1CCN(c2ccc(C(=O)Nc3cc(C#N)c4nc(C)cn4c3)c3nn(C)cc23)CC1` [Compound 307, N-(8-cyano-2-methyl-imidazo[1,2-a]pyridin-6-yl)-4-[4-(ethylamino)-1-piperidyl]-2-methyl-indazole-7-carboxamide]: the results for the AC50 in the experiment with HTT mRNA [1] and in the experiment with MYB mRNA [2] were 1 to 10 µM and 0.1 to 1 µM, respectively. Also, the IC50 is 1 to 10 µM in the experiment on HTT mRNA [1]; 0.1 to 1 µM in the experiment on MYB mRNA [2]; 1 to 10 µM in the experiment with HTT mRNA [3]; 0.1 to 1 µM in the experiment on MYB mRNA [4]; under 0.1 µM in the experiment with SMN2 mRNA. Besides, the GI50 in experiment [5] was in the range of 1 to 10 µM.

For `CCNC1CCN(c2cc(F)c(C(=O)Nc3cn4c(Cl)c(C)nc4c(F)c3OC)c3nn(C)cc23)CC1` [Compound 308, N-(3-chloro-8-fluoro-7-methoxy-2-methyl-imidazo [1,2-a]pyridin-6-yl)-4-[4-(ethylamino)-1-piperidyl]-6-fluoro-2-methyl-indazole-7-carboxamide], the AC50 with HTT mRNA [1] and in the experiment on MYB mRNA [2] was over 10 µM in each case. The IC50 in the experiment with HTT mRNA [1] was over 10 µM; with MYB mRNA [2], over 10 µM; in the experiment on HTT mRNA [3], over 10 µM; in the experiment with MYB mRNA [4] it was over 10 µM; in the experiment with SMN2 mRNA, 0.1 to 1 µM. The GI50 in experiment [5] lay within 1 to 10 µM.

`CCNC1CCN(c2ccc(C(=O)Nc3cn4cc(C5CC5)nc(C)c4n3)c3nn(C)cc23)CC1` [Compound 309, N-(6-cyclopropyl-8-methylimidazo[1,2-a]-pyrazin-2-yl)-4-[4-(ethylamino)-1-piperidyl]-2-methyl-indazole-7-carboxamide]: the AC50 in the experiment on HTT mRNA [1] and in the experiment on MYB mRNA [2] was over 10 µM each time. Further, the IC50 in the experiment with HTT mRNA [1], in the experiment with MYB mRNA [2], in the experiment on HTT mRNA [3], with MYB mRNA [4] and with SMN2 mRNA was over 10 µM in each case. In addition, the GI50 in experiment [5] is over 10 µM.

The values are drawn from patent US20260285853A1, “COMPOUNDS AND METHODS FOR MODULATING SPLICING” (REMIX THERAPEUTICS INC., priority 2023, published 2026).
